According to ChEMBL document CHEMBL5154873, “Selective degradation of PARP2 by PROTACs via recruiting DCAF16 for triple-negative breast cancer” (Eur J Med Chem, 2022):
Calls of active or inactive are those of the source. No cut-off for these calls is given here.

Experiments:
MDA-MB-231 [1] = test: Induction of apoptosis in human wild type MDA-MB-231 cells at 1.25 uM measured after 48 hrs by Annexin V-FITC/PI staining based flow cytometry method; assay type: functional
NCI-H3122 = test: Antiproliferative activity against human H3122 cells over expressing DCAF16 assessed as reduction in cell viability incubated for 5 to 10 days by MTT assay; assay type: functional, cell-based; details: time 5-10 day
MDA-MB-231 [2] = test: In vivo antitumor activity against human MDA-MB-231 cells xenografted BALB/c mouse assessed as tumor growth inhibition at 25 mg/kg, ip measured after 21 days; assay type: functional; details: MDA-MB-231, 504 h, time 21 day, read-out: TGI
L02 = test: Cytotoxicity against human L02 cells; assay type: toxicity, cell-based
[3] = Toxicity in BALB/c mouse xenografted with MDA-MB-231 cells assessed as change in body weight at 100 mg/kg, IG measured after 21 days; assay type: organism-based; details: in vivo, po, 504 h, time 21 day
MDA-MB-231 [4] = test: Antitumor activity against human MDA-MB-231 cells xenografted BALB/c mouse assessed as reduction in tumor weight at 25 mg/kg, ip measured after 21 days; assay type: functional, organism-based; details: time 21.0 day
[5] = target: Poly [ADP-ribose] polymerase 2 (Homo sapiens, UniProt Q9UGN5); test: Inhibition of PARP2 (unknown origin)
Sequence of Poly [ADP-ribose] polymerase 2 (Q9UGN5 whole entry): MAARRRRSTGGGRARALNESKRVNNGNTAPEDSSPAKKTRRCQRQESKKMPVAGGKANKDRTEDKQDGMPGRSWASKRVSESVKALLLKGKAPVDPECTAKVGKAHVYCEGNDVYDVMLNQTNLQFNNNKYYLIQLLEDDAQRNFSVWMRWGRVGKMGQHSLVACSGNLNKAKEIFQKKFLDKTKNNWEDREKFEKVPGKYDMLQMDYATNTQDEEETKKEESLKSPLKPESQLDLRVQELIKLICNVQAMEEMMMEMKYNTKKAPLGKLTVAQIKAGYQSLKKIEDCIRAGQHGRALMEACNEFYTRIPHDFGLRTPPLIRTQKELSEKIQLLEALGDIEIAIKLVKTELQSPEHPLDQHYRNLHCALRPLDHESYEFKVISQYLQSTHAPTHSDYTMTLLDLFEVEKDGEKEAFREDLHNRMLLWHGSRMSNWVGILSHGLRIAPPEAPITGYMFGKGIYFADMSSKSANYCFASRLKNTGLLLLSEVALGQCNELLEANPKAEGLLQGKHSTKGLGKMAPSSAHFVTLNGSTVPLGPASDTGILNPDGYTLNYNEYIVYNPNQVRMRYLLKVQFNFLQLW

[6] = target: T1, DDB1- and CUL4-associated factor 16/Poly [ADP-ribose] polymerase 2 (Homo sapiens, UniProt Q9UGN5+Q9NXF7); test: Protac activity at DCAF16 E3 ligase/PARP2 in human MDA-MB-231 cells assessed as induction of PARP2 degradation at 1 uM measured after 24 hrs by Western blot analysis; assay type: cell-based
Target sequence in this assay (Q9NXF7 whole entry, looked up): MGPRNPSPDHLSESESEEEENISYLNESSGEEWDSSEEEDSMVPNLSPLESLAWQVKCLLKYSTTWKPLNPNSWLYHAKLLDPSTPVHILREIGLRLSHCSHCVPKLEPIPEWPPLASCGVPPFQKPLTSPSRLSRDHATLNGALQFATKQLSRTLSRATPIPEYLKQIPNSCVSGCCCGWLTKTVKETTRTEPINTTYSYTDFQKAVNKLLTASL
Target sequence in this assay (Q9UGN5 whole entry, looked up): as the sequence (Q9UGN5 whole entry) above

MDA-MB-231 [7] = test: In vivo antitumor activity against human MDA-MB-231 cells xenografted BALB/c mouse assessed as tumor growth inhibition at 12.5 mg/kg, ip measured after 21 days; assay type: functional; details: MDA-MB-231, 504 h, time 21 day, read-out: TGI
MDA-MB-468 [8] = test: Antiproliferative activity against human PTEN -/- MDA-MB-468 cells assessed as reduction in cell viability incubated for 5 to 10 days by MTT assay; assay type: functional, cell-based
MV4-11 = test: Antiproliferative activity against human MV4-11 cells over expressing DCAF16 assessed as reduction in cell viability incubated for 5 to 10 days by MTT assay; assay type: functional, cell-based; details: time 5-10 day
HeLa = test: Antiproliferative activity against human HeLa cells over expressing DCAF16 assessed as reduction in cell viability incubated for 5 to 10 days by MTT assay; assay type: functional, cell-based; details: time 5-10 day
[9] = target: T1, DDB1- and CUL4-associated factor 16/Poly [ADP-ribose] polymerase 2; test: Protac activity at DCAF16 E3 ligase/PARP2 in human MDA-MB-231 cells assessed as induction of PARP2 degradation measured after 24 hrs by Western blot analysis; assay type: cell-based
Target sequence in this assay (Q9UGN5 whole entry): as above
Target sequence in this assay (Q9NXF7 whole entry): as the sequence (Q9NXF7 whole entry, looked up) above

[10] = Toxicity in BALB/c mouse xenografted with MDA-MB-231 cells assessed as pathological changes in spleen at 25 mg/kg, ip measured after 21 days by hematoxylin and eosin staining based assay; assay type: organism-based; details: in vivo, 504 h, time 21 day
[11] = Toxicity in BALB/c mouse xenografted with MDA-MB-231 cells assessed as pathological changes in liver at 25 mg/kg, ip measured after 21 days by hematoxylin and eosin staining based assay; assay type: organism-based; details: in vivo, 504 h, time 21 day
[12] = target: T1, DDB1- and CUL4-associated factor 16/Poly [ADP-ribose] polymerase 2; test: Protac activity at DCAF16 E3 ligase/PARP2 in human MDA-MB-231 cells assessed as induction of PARP2 degradation at 0.5 uM preincubated for 2 hrs followed by compound washout measured after 48 hrs by Western blot analysis; assay type: cell-based
Target sequence in this assay (Q9NXF7 whole entry, looked up): as above
Target sequence in this assay (Q9UGN5 whole entry, looked up): as the sequence (Q9UGN5 whole entry) above

SW-620 = test: Antiproliferative activity against human SW-620 cells over expressing DCAF16 assessed as reduction in cell viability incubated for 5 to 10 days by MTT assay; assay type: functional, cell-based; details: time 5-10 day
[13] = Toxicity in BALB/c mouse xenografted with MDA-MB-231 cells assessed as mortality at 12.5 to 25 mg/kg, ip measured after 21 days; assay type: organism-based; details: in vivo, 504 h, dose 12.5-25 mg/kg, time 21 day
MDA-MB-436 [14] = test: Antiproliferative activity against human BRCA1 -/- MDA-MB-436 cells assessed as reduction in cell viability incubated for 5 to 10 days by MTT assay; assay type: functional, cell-based
[15] = Toxicity in BALB/c mouse xenografted with MDA-MB-231 cells assessed as pathological changes in kidney at 25 mg/kg, ip measured after 21 days by hematoxylin and eosin staining based assay; assay type: organism-based; details: in vivo, 504 h, time 21 day
MDA-MB-231 [16] = test: Inhibition of colony formation in human MDA-MB-231 cells measured after 14 days by crystal violet staining based analysis; assay type: functional, cell-based; details: dose 0.312-5 µM, time 14.0 day, DDE = dose-dependent effect
MDA-MB-231 [17] = test: Induction of cell cycle arrest in human MDA-MB-231 cells assessed as accumulation at G2/M phase measured after 24 hrs by flow cytometry analysis; assay type: functional, cell-based; details: dose 0.156-1.25 µM, DDE = dose-dependent effect
[18] = target: T1, DDB1- and CUL4-associated factor 16/Poly [ADP-ribose] polymerase 2; test: Protac activity at DCAF16 E3 ligase/PARP2 in human MDA-MB-231 cells assessed as induction of PARP2 degradation at 0.5 uM measured after 8 hrs by Western blot analysis; assay type: cell-based
Target sequence in this assay (Q9NXF7 whole entry, looked up): as the sequence (Q9NXF7 whole entry, looked up) above
Target sequence in this assay (Q9UGN5 whole entry, looked up): as the sequence (Q9UGN5 whole entry) above

MDA-MB-468 [19] = test: Potency index, ratio of IC50 of Olaparib to IC50 of test compound antiproliferative activity against human PTEN -/- MDA-MB-468 cells assessed as reduction in cell viability incubated for 5 to 10 days by MTT assay; assay type: functional; details: time 5-10 day
HepG2 = test: Antiproliferative activity against human HepG2 cells over expressing DCAF16 assessed as reduction in cell viability incubated for 5 to 10 days by MTT assay; assay type: functional, cell-based; details: time 5-10 day
NCI-H2228 = test: Antiproliferative activity against human H2228 cells over expressing DCAF16 assessed as reduction in cell viability incubated for 5 to 10 days by MTT assay; assay type: functional, cell-based; details: time 5-10 day
[20] = Toxicity in BALB/c mouse xenografted with MDA-MB-231 cells assessed as pathological changes in heart at 25 mg/kg, ip measured after 21 days by hematoxylin and eosin staining based assay; assay type: organism-based; details: in vivo, 504 h, time 21 day
CAPAN-1 = test: Antiproliferative activity against human BRCA2 -/- CAPAN-1 cells assessed as reduction in cell viability incubated for 5 to 10 days by MTT assay; assay type: functional, cell-based
[21] = Toxicity in BALB/c mouse xenografted with MDA-MB-231 cells assessed as morbidity at 12.5 to 25 mg/kg, ip measured after 21 days; assay type: organism-based; details: in vivo, 504 h, dose 12.5-25 mg/kg, time 21 day
SK-OV-3 = test: Antiproliferative activity against human SK-OV-3 cells over expressing DCAF16 assessed as reduction in cell viability incubated for 5 to 10 days by MTT assay; assay type: functional, cell-based; details: time 5-10 day
[22] = Toxicity in BALB/c mouse xenografted with MDA-MB-231 cells assessed as morbidity at 100 mg/kg, IG measured after 21 days; assay type: organism-based; details: in vivo, po, 504 h, time 21 day
[23] = target: Poly [ADP-ribose] polymerase 1 (Homo sapiens, UniProt P09874); test: Inhibition of PARP1 (unknown origin)
Sequence of Poly [ADP-ribose] polymerase 1 (P09874 whole entry): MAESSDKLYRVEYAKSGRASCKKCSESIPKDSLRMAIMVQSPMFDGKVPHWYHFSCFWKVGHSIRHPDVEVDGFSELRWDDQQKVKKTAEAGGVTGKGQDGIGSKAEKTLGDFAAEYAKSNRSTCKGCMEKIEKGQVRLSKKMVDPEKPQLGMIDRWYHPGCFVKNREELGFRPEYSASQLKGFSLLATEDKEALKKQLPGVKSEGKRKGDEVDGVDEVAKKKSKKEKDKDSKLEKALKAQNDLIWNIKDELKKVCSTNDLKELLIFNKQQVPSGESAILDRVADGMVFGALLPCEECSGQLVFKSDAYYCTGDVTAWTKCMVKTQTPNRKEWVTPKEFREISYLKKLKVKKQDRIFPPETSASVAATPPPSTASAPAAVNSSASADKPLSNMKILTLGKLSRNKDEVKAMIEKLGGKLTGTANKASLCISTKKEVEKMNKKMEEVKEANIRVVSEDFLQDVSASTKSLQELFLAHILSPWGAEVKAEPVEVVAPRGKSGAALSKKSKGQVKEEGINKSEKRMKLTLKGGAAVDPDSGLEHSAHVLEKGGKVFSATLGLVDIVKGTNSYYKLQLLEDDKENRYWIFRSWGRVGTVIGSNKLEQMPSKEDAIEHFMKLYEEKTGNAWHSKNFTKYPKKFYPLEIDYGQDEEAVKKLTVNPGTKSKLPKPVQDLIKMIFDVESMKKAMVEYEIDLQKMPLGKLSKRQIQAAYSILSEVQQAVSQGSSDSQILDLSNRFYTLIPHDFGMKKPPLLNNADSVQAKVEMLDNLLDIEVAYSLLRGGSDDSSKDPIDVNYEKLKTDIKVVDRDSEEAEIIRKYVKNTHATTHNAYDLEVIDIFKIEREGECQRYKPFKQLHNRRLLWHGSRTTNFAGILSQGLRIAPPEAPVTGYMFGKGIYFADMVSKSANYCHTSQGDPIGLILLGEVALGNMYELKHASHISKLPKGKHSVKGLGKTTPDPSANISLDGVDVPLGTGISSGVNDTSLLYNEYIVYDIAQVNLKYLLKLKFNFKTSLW

MDA-MB-231 [24] = test: In vivo antitumor activity against human MDA-MB-231 cells xenografted BALB/c mouse assessed as tumor growth inhibition at 100 mg/kg, IG measured after 21 days; assay type: functional; details: MDA-MB-231, po, 504 h, time 21 day, read-out: TGI
[25] = target: T1, DDB1- and CUL4-associated factor 16/Poly [ADP-ribose] polymerase 2; test: Protac activity at DCAF16 E3 ligase/PARP2 in human MDA-MB-231 cells assessed as maximum degradation of PARP2 measured after 24 hrs by Western blot analysis relative to control; assay type: cell-based
Target sequence in this assay (Q9NXF7 whole entry, looked up): as the sequence (Q9NXF7 whole entry, looked up) above
Target sequence in this assay (Q9UGN5 whole entry, looked up): as the sequence (Q9UGN5 whole entry) above

[26] = Toxicity in BALB/c mouse xenografted with MDA-MB-231 cells assessed as pathological changes in lung at 25 mg/kg, ip measured after 21 days by hematoxylin and eosin staining based assay; assay type: organism-based; details: in vivo, 504 h, time 21 day
[27] = target: T1, DDB1- and CUL4-associated factor 16/Poly [ADP-ribose] polymerase 2; test: Protac activity at DCAF16 E3 ligase/PARP2 in human MDA-MB-231 cells assessed as induction of PARP2 degradation in nucleus at 0.5 uM measured after 24 hrs by DAPI staining based immunofluorescence microscopy; assay type: cell-based
Target sequence in this assay (Q9NXF7 whole entry, looked up): as the sequence (Q9NXF7 whole entry, looked up) above
Target sequence in this assay (Q9UGN5 whole entry, looked up): as the sequence (Q9UGN5 whole entry) above

MDA-MB-231 [28] = test: Potency index, ratio of IC50 of Olaparib to IC50 of test compound antiproliferative activity against wild type human MDA-MB-231 cells assessed as reduction in cell viability incubated for 5 to 10 days by MTT assay; assay type: functional; details: time 5-10 day
[29] = Toxicity in BALB/c mouse xenografted with MDA-MB-231 cells assessed as mortality at 100 mg/kg, IG measured after 21 days; assay type: organism-based; details: in vivo, po, 504 h, time 21 day
[30] = Toxicity in BALB/c mouse xenografted with MDA-MB-231 cells assessed as change in body weight at 12.5 to 25 mg/kg, ip measured after 21 days; assay type: organism-based; details: in vivo, 504 h, dose 12.5-25 mg/kg, time 21 day
MDA-MB-436 [31] = test: Induction of cell cycle arrest in human (BRAC1-/-) MDA-MB-436 cells assessed as accumulation at G2/M phase measured after 48 hrs by flow cytometry analysis; assay type: functional, cell-based; details: dose 0.312-2.5 µM, DDE = dose-dependent effect
MDA-MB-231 [32] = test: Antiproliferative activity against wild type human MDA-MB-231 cells assessed as reduction in cell viability incubated for 5 to 10 days by MTT assay; assay type: functional, cell-based

SMILES: O=C(COc1ccc2c(c1)CCCN2C(=O)CCl)NCCCCCCCCCC(=O)N1CCN(C(=O)c2cc(Cc3n[nH]c(=O)c4ccccc34)ccc2F)CC1
- Activity (MDA-MB-231 [1]): 20%
- inhibition (NCI-H3122): Active
- inhibition in vivo at 25 mg/kg (MDA-MB-231 [2]): 98.3%
- Activity (L02): Non-Toxic
- Activity [3]: Non-Toxic
- Activity (MDA-MB-231 [4]): Active
- IC50 [5]: 0.32 nM
- Activity [6]: Active
- inhibition in vivo at 12.5 mg/kg (MDA-MB-231 [7]): 82.9%
- IC50 (MDA-MB-468 [8]): 690 nM
- inhibition (MV4-11): Active
- inhibition (HeLa): Active
- DC50 [9]: 2000 nM
- Activity [10]: Non-Toxic
- Activity [11]: Non-Toxic
- Activity [12]: Active
- inhibition (SW-620): Active
- Activity [13]: Non-Toxic
- IC50 (MDA-MB-436 [14]): 26 nM
- Activity [15]: Non-Toxic
- inhibition (MDA-MB-231 [16]): Dde
- Activity (MDA-MB-231 [17]): Dde
- Activity [18]: Active
- Ratio IC50 (MDA-MB-468 [19]): 6
- inhibition (HepG2): Active
- inhibition (NCI-H2228): Active
- Activity [20]: Non-Toxic
- IC50 (CAPAN-1): 61 nM
- Activity [21]: Non-Toxic
- inhibition (SK-OV-3): Active
- Activity [22]: Non-Toxic
- IC50 [23]: 2.74 nM
- inhibition in vivo at 100 mg/kg (MDA-MB-231 [24]): 63.5%
- Activity [25]: > 92%
- Activity [26]: Non-Toxic
- Activity [27]: Active
- Ratio IC50 (MDA-MB-231 [28]): 6
- Activity [29]: Non-Toxic
- Activity [30]: Non-Toxic
- Activity (MDA-MB-436 [31]): Dde
- IC50 (MDA-MB-231 [32]): 530 nM
